{"source": "PubChem BioAssay AID330", "about": "(DTP/NCI, 2004)", "test_system": "P388 leukemia ip, CD2F1 mice, survival T/C", "assay": "NCI In Vivo Anticancer Drug Screen. Data for tumor model P388 Leukemia (intraperitoneal) in CD2F1 (CDF1) mice", "settings": "endpoint: median survival time, higher = longer survival", "outline": "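Mice carrying the transplanted tumor received test compound or vehicle. Survival was recorded in each group, and the value is the treated-group measurement divided by that of the vehicle-treated control group.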", "key": {"[1]": {"settings": "dose: 50.0 mg/kg/injection, schedule: Q01DX005 (ip), vehicle: Klucel (hydroxypropylcellulose) (HPC)"}, "[2]": {"settings": "dose: 100.0 mg/kg/injection, schedule: Q01DX005 (ip), vehicle: Klucel (hydroxypropylcellulose) (HPC)"}, "[3]": {"settings": "dose: 200.0 mg/kg/injection, schedule: Q01DX005 (ip), vehicle: Klucel (hydroxypropylcellulose) (HPC)"}}, "note": "“And” between values parts separate entries of the source, which are not always exact repeats. Equal values may be shown once. Inconclusive results and toxic doses are left out."}
{"compound": "N#C/C(=C\\c1ccc([N+](=O)[O-])o1)[N+](=O)[O-]", "values": [{"measurement": "T/C", "setting": "dose: 50.0 mg/kg/injection, schedule: Q01DX009 (ip), vehicle: saline", "value": "103 % of control"}, {"measurement": "T/C", "setting": "dose: 100.0 mg/kg/injection, schedule: Q01DX009 (ip), vehicle: saline", "value": "93 % of control"}]}
{"compound": "O=C(/C(=C\\c1ccccc1[N+](=O)[O-])S(=O)(=O)c1ccccc1)c1ccc([N+](=O)[O-])cc1", "values": [{"measurement": "T/C", "setting": "dose: 50.0 mg/kg/injection, schedule: Q01DX005 (ip), vehicle: saline with Tween-80", "value": "98 % of control"}, {"measurement": "T/C", "setting": "dose: 100.0 mg/kg/injection, schedule: Q01DX005 (ip), vehicle: saline with Tween-80", "value": "103 % of control"}, {"measurement": "T/C", "setting": "dose: 200.0 mg/kg/injection, schedule: Q01DX005 (ip), vehicle: saline with Tween-80", "value": "95 % of control"}]}
{"compound": "CN(C)C1=CC(=S)NC2CCCCC12", "note": "(stereo not given)", "values": [{"measurement": "T/C", "setting": "[1]", "value": "99 % of control"}, {"measurement": "T/C", "setting": "[2]", "value": "95 % of control"}, {"measurement": "T/C", "setting": "[3]", "value": "102 % of control"}]}
{"compound": "CC1=CC2C(O)(CC3(COC(=O)/C=C/c4ccccc4)OC3C3C4C(C)(C)C4(OC(=O)/C=C/c4ccccc4)C(OC(=O)/C=C/c4ccccc4)C(C)C32O)C1=O", "note": "(stereo not given)", "values": [{"measurement": "T/C", "setting": "dose: 0.2 mg/kg/injection, schedule: Q01DX005 (ip), vehicle: saline + alcohol", "value": "100 % of control"}, {"measurement": "T/C", "setting": "dose: 0.4 mg/kg/injection, schedule: Q01DX005 (ip), vehicle: saline + alcohol", "value": "100 % of control"}, {"measurement": "T/C", "setting": "dose: 0.8 mg/kg/injection, schedule: Q01DX005 (ip), vehicle: saline + alcohol", "value": "100 % of control"}, {"measurement": "T/C", "setting": "dose: 1.6 mg/kg/injection, schedule: Q01DX005 (ip), vehicle: saline + alcohol", "value": "98 % of control"}, {"measurement": "T/C", "setting": "dose: 3.2 mg/kg/injection, schedule: Q01DX005 (ip), vehicle: saline + alcohol", "value": "104 % of control"}]}
{"compound": "CC(C)(C)[P+](C)(C)c1ccccc1", "values": [{"measurement": "T/C", "setting": "dose: 12.5 mg/kg/injection, schedule: Q04DX003 (ip), vehicle: Klucel (hydroxypropylcellulose) (HPC)", "value": "105 % of control"}, {"measurement": "T/C", "setting": "dose: 25.0 mg/kg/injection, schedule: Q04DX003 (ip), vehicle: Klucel (hydroxypropylcellulose) (HPC)", "value": "100 % of control"}]}
{"compound": "Cc1cc(NCCCCCCCNc2cc(C)nc3cc(N)ccc23)c2ccc(N)cc2n1", "values": [{"measurement": "T/C", "setting": "dose: 1.56 mg/kg/injection, schedule: Q01DX009 (ip), vehicle: other", "value": "165 % of control"}, {"measurement": "T/C", "setting": "dose: 3.13 mg/kg/injection, schedule: Q01DX009 (ip), vehicle: other", "value": "158 % of control"}, {"measurement": "T/C", "setting": "dose: 6.25 mg/kg/injection, schedule: Q01DX009 (ip), vehicle: other", "value": "186 % of control and 196 % of control"}, {"measurement": "T/C", "setting": "dose: 12.5 mg/kg/injection, schedule: Q01DX009 (ip), vehicle: other", "value": "157 % of control and 186 % of control"}]}
{"compound": "CC1(C)N=C(N)N=C(N)N1c1ccc(OCC(=O)Nc2ccccc2)c(Cl)c1", "values": [{"measurement": "T/C", "setting": "dose: 25.0 mg/kg/injection, schedule: Q01DX009 (ip), vehicle: saline with Tween-80", "value": "100 % of control"}, {"measurement": "T/C", "setting": "dose: 25.0 mg/kg/injection, schedule: Q04DX003 (ip), vehicle: saline with Tween-80", "value": "100 % of control"}, {"measurement": "T/C", "setting": "dose: 50.0 mg/kg/injection, schedule: Q01DX009 (ip), vehicle: saline with Tween-80", "value": "104 % of control"}, {"measurement": "T/C", "setting": "dose: 50.0 mg/kg/injection, schedule: Q04DX003 (ip), vehicle: saline with Tween-80", "value": "100 % of control"}, {"measurement": "T/C", "setting": "dose: 100.0 mg/kg/injection, schedule: Q01DX009 (ip), vehicle: saline with Tween-80", "value": "109 % of control"}, {"measurement": "T/C", "setting": "dose: 100.0 mg/kg/injection, schedule: Q04DX003 (ip), vehicle: saline with Tween-80", "value": "113 % of control"}]}
{"compound": "C=C(C)c1nc(N)nc(N(C)C)n1", "values": [{"measurement": "T/C", "setting": "[1]", "value": "100 % of control"}, {"measurement": "T/C", "setting": "[2]", "value": "102 % of control"}, {"measurement": "T/C", "setting": "[3]", "value": "100 % of control"}]}
{"compound": "Cn1c2ccccc2c(=O)c2c(O)cc3c(c21)CC(C1(C)CO1)O3", "note": "(stereo not given)", "values": [{"measurement": "T/C", "setting": "dose: 2.0 mg/kg/injection, schedule: Q01DX005 (ip), vehicle: Klucel (hydroxypropylcellulose) (HPC)", "value": "99 % of control"}, {"measurement": "T/C", "setting": "dose: 4.0 mg/kg/injection, schedule: Q01DX005 (ip), vehicle: Klucel (hydroxypropylcellulose) (HPC)", "value": "105 % of control and 107 % of control"}, {"measurement": "T/C", "setting": "dose: 8.0 mg/kg/injection, schedule: Q01DX005 (ip), vehicle: Klucel (hydroxypropylcellulose) (HPC)", "value": "103 % of control and 107 % of control"}, {"measurement": "T/C", "setting": "dose: 16.0 mg/kg/injection, schedule: Q01DX005 (ip), vehicle: Klucel (hydroxypropylcellulose) (HPC)", "value": "108 % of control and 116 % of control"}]}
{"compound": "O=C1Nc2ccccc2C1NC(=S)Nc1ccccc1", "note": "(stereo not given)", "values": [{"measurement": "T/C", "setting": "dose: 60.0 mg/kg/injection, schedule: Q01DX005 (ip), vehicle: saline with Tween-80", "value": "96 % of control"}, {"measurement": "T/C", "setting": "dose: 120.0 mg/kg/injection, schedule: Q01DX005 (ip), vehicle: saline with Tween-80", "value": "94 % of control"}]}
{"compound": "BrP(Cc1ccccc1-c1ccccc1CP(Br)(c1ccccc1)(c1ccccc1)c1ccccc1)(c1ccccc1)(c1ccccc1)c1ccccc1", "values": [{"measurement": "T/C", "setting": "dose: 1.56 mg/kg/injection, schedule: Q01DX009 (ip), vehicle: saline", "value": "103 % of control"}, {"measurement": "T/C", "setting": "dose: 3.12 mg/kg/injection, schedule: Q01DX009 (ip), vehicle: saline", "value": "102 % of control"}, {"measurement": "T/C", "setting": "dose: 6.25 mg/kg/injection, schedule: Q01DX009 (ip), vehicle: saline", "value": "100 % of control and 103 % of control"}]}
{"compound": "CCOC(=O)CNC(=O)C(CS)NC(=O)C(CSC(c1ccccc1)c1ccccc1)NC(=O)OCc1ccccc1", "note": "(stereo not given)", "values": [{"measurement": "T/C", "setting": "[1]", "value": "97 % of control"}, {"measurement": "T/C", "setting": "[2]", "value": "99 % of control"}, {"measurement": "T/C", "setting": "[3]", "value": "103 % of control"}]}
